Entries after “also recorded” stand apart in the source; their conditions may differ.
Tests used:
Type in all cases: cell-based, human
[1] = system: TK6 cells
[2] = system: TK6+MGMT cells; assay: ToxChip (μCC) microcolony toxicity assay, TK6+MGMT cells; details: TK6+MGMT vs TK6
[3] = system: MCL-5 cells; assay: ToxChip (μCC) microcolony toxicity assay, MCL-5 cells

## O=NN(CCCl)C(=O)NCCCl [BCNU, N,N′-bis (2-chloroethyl)-N-nitrosourea]
[1]; TK6 cells, 10 μM BCNU
  PF value as % of the control PF: 96%
  PFF (total PF fluorescence) as % of the control PFF: 53%
[1]; TK6 cells, BCNU 1 hour, up to 72 hours growth
  microcolony growth (F/M distribution) after treatment: less able to form larger colonies; also recorded: inhibits growth of colonies
[2]; PFF method
  difference in survival between TK6 and TK6+MGMT when challenged: approximately 1 log
[2]; μCC, treatment 1 hour at 37° C.
  difference in sensitivity between TK6 and TK6+MGMT: significant difference in sensitivity; also recorded: MGMT significantly rescues TK6 cells

## CC(=O)N1CCN(c2ccc(OCC3COC(Cn4ccnc4)(c4ccc(Cl)cc4Cl)O3)cc2)CC1 (stereo not drawn) [KET, ketoconazole]
[3]
  rescue of MCL-5 cells from AFB1 toxicity by co-treatment: significant rescue; also recorded: significantly rescues

## aflatoxin B1 [AFB1]
[1]
  toxicity to TK6 cells: relatively unaffected
[3]
  difference in sensitivity between TK6 and MCL-5 cells: more than 2 log
  sensitivity of MCL-5 cells compared with TK6 cells: significantly more sensitive

Reference: patent US20200109362A1 (priority 2016, published 2020)
